From patent publication US20080188506A1, “SPIROINDOLINONE DERIVATIVES” (priority 2007, published 2008)

Molecular target: interaction between p53 and MDM2 proteins (recombinant GST-tagged MDM2 / p53 peptide) (Homo sapiens, UniProt Q00987)
Experiment: HTRF assay of inhibition of the p53-MDM2 interaction (GST-MDM2 / biotinylated p53 peptide)
Type: binding
Settings: 0.2% BSA, 37° C. 1 h
Protocol: The ability of the compounds to inhibit the interaction between p53 and MDM2 proteins was measured by an HTRF (homogeneous time-resolved fluorescence) assay in which recombinant GST-tagged MDM2 binds to a peptide that resembles the MDM2-interacting region of p53 (Lane et al.). Binding of GST-MDM2 protein and p53-peptide (biotinylated on its N-terminal end) is registered by the FRET (fluorescence resonance energy transfer) between Europium (Eu)-labeled anti-GST antibody and streptavidin-conjugated Allophycocyanin (APC).
Test is performed in black flat-bottom 384-well plates (Costar) in a total volume of […] containing:90 nM biotinylate peptide, 160 ng/ml GST-MDM2, 20 nM streptavidin-APC (PerkinElmerWallac), 2 nM Eu-labeled anti-GST-antibody (PerkinElmerWallac), 0.2% bovine serum albumin (BSA), 1 mM dithiothreitol (DTT) and 20 mM […] (TBS) buffer as follows: Add 10 uL of GST-MDM2 (640 ng/ml working solution) in reaction buffer to each well. Add 10 uL diluted compounds (1:5 dilution in reaction buffer) to each well, mix by shaking. Add 20 uL biotinylated p53 peptide (180 nM working solution) in reaction buffer to each well and mix on shaker. Incubate at 37° C. for 1 h. Add 20 uL streptavidin-APC and Eu-anti-GST antibody mixture (6 nM Eu-anti-GST and 60 nM streptavidin-APC working solution) in TBS buffer with 0.2% BSA, shake at room temperature for 30 minutes and read using a TRF-capable plate reader at 665 and 615 nm (Victor 5, Perkin ElmerWallac). If not specified, the reagents were purchased from Sigma Chemical Co.

interaction between p53 and MDM2 proteins (recombinant GST-tagged MDM2 / p53 peptide), sequence (Q00987 whole entry): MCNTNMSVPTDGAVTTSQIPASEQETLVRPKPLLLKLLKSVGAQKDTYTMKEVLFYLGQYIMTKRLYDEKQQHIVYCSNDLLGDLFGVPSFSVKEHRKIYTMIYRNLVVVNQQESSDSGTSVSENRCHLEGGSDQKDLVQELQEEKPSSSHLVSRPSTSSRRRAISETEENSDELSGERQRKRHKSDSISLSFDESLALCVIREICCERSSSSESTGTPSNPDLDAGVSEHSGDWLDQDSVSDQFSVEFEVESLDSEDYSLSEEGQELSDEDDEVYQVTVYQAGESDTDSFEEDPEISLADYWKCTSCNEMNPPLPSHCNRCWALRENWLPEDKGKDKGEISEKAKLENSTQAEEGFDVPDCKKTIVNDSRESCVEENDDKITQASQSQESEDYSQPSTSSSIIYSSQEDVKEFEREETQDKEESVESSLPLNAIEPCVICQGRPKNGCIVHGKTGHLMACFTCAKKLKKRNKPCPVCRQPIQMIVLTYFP

Compound | IC50 [µM]
COc1ccc(F)cc1[C@H]1NCC[C@@H](c2cccc(Cl)c2)[C@]12C(=O)Nc1cc(Cl)ccc12 (racemic) [Example 16c, racemic (2′R, 3R, 4′S)-6-chloro-4′-(3-chlorophenyl)-2′-(5-fluoro-2-methoxyphenyl) spiro[3H-indole-3,3′-piperidine]-2(1H)-one] | 2.31
O=C1Nc2cc(Cl)ccc2[C@]12[C@@H](c1ccccc1C(F)(F)F)NCC[C@H]2c1cccc(Cl)c1 (racemic) [Example 11c] | 6.95
C=C(CC(C)C)[C@H]1n2cnnc2C[C@@H](c2cccc(Cl)c2)[C@]12C(=O)Nc1cc(Cl)ccc12 (racemic) [Example 44h] | 1.03
COc1cccc([C@H]2NCC[C@@H](c3cccc(Cl)c3)[C@]23C(=O)Nc2cc(Cl)ccc23)c1 (racemic) [Example 8c, racemic (2′R, 3R, 4′S)-6-chloro-4′-(3-chlorophenyl)-2′-(3-methoxyphenyl) spiro[3H-indole-3,3′-piperidine]-2(1H)-one] | 5.21
